Data as given in ChEMBL document CHEMBL3612067, “Synthesis of a series of unsaturated ketone derivatives as selective and reversible monoamine oxidase inhibitors” (Bioorg Med Chem, 2015).

Experiments:
[1] = molecular target: T1, Amine oxidase [flavin-containing] A (Homo sapiens, UniProt P21397)
T1 sequence (P21397 whole entry): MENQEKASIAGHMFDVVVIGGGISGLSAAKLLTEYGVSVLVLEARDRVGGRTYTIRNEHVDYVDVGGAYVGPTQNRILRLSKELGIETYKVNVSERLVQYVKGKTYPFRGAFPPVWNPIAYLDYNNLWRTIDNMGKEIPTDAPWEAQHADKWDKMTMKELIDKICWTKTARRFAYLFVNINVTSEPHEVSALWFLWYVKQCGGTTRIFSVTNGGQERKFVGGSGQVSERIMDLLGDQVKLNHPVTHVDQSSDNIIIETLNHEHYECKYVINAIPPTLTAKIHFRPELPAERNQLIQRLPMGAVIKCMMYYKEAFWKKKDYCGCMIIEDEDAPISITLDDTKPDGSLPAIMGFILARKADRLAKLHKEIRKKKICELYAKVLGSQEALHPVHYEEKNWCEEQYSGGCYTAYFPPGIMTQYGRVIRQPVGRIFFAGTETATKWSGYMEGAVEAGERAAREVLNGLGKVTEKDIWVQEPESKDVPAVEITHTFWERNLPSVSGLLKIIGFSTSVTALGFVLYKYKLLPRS

[2] = molecular target: T2, Amine oxidase [flavin-containing] B (Homo sapiens, UniProt P27338)
T2 sequence (P27338 whole entry): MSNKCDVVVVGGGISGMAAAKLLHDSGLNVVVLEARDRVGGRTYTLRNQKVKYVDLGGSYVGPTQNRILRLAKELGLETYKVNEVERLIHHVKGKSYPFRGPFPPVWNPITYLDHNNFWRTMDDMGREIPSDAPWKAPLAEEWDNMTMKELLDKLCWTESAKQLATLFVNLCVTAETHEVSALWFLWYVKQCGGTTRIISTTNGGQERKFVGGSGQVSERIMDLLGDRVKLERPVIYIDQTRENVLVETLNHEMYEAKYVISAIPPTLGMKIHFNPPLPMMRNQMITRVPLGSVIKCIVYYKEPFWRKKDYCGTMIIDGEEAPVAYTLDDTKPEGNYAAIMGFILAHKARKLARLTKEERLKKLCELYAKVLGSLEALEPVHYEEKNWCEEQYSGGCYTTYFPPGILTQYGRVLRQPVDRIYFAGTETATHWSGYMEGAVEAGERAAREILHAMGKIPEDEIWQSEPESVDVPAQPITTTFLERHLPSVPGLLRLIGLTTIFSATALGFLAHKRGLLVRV

[3] = molecular target: T2, Amine oxidase [flavin-containing] B; settings: 0.5 h, read-out: INH
[4] = Effect on H2O2 scavenging activity of the compound up to 50 uM after 1.5 hrs by Amplex red/horseradish peroxidase detection method; type: physicochemical
[5] = molecular target: T2, Amine oxidase [flavin-containing] B; experiment: Reversible inhibition of recombinant human MAOB using benzylamine as substrate at 2 uM measured after 3 times washout of drug by Amplex red based spectrophotometric analysis
[6] = Effect on H2O2 scavenging activity of the compound after 1.5 hrs by Amplex red/horseradish peroxidase detection method; type: physicochemical

Compound	IC50 [1]	IC50 [2]	inhibition at 2 µM [3]	Activity [4]	inhibition (INH) [5]	Activity [6]
O=C(/C=C/c1ccccc1C(F)(F)F)Nc1cccc(F)c1	> 100 µM	3.37 µM				
O=C(/C=C/c1ccc(C(F)(F)F)cc1)Nc1ccc(F)cc1	> 100 µM	0.223 µM				
O=C(/C=C/c1ccccc1Cl)Nc1cccc(O)c1	> 100 µM	5.21 µM				
O=C(/C=C/c1ccccc1Cl)Nc1ccc(O)cc1	16.7 µM	> 10 µM				
COc1ccc(C(=O)/C=C/c2ccccc2C(F)(F)F)cc1	> 100 µM	0.016 µM	> 80%	Not Active	Active	
O=C(/C=C/c1ccccc1C(F)(F)F)Nc1ccccc1	> 100 µM	8.39 µM				
COc1ccc(C(=O)/C=C/c2ccc(C(F)(F)F)cc2)cc1	> 100 µM	0.199 µM				
O=C(O[C@@H]1Cc2c(O)cc(O)cc2O[C@@H]1c1cc(O)c(O)c(O)c1)c1cc(O)c(O)c(O)c1 [EPIGALOCATECHIN GALLATE]						Dose-dependent effect
COc1ccc(C(=O)/C=C/c2ccccc2F)cc1	> 100 µM	0.056 µM	> 80%	Not Active	Active	
COc1cccc(C(=O)/C=C/c2ccccc2)c1	> 100 µM	0.793 µM				
O=C(/C=C/c1ccccc1C(F)(F)F)Nc1ccc(O)cc1	9.22 µM	> 10 µM				
O=C(/C=C/c1ccccc1C(F)(F)F)Nc1cccc(O)c1	> 100 µM	5.98 µM				
O=C(/C=C/c1cccc(C(F)(F)F)c1)Nc1cccc(F)c1	> 100 µM	4.89 µM				
COc1ccccc1C(=O)/C=C/c1ccccc1C(F)(F)F	> 100 µM	0.253 µM				
COc1ccc(C(=O)/C=C/c2ccccc2Cl)cc1	> 100 µM	0.069 µM				
O=C(/C=C/c1ccccc1C(F)(F)F)c1ccc(O)cc1	> 100 µM	0.057 µM				
O=C(/C=C/c1ccccc1Cl)Nc1ccccc1	> 100 µM	2.82 µM				

Compound	IC50 [1]	IC50 [2]	inhibition at 2 µM [3]	Activity [4]	inhibition (INH) [5]	Activity [6]
COc1ccc(/C=C/C(=O)c2ccc(OC)cc2)cc1 [4,4'-DIMETHOXYCHALCONE]	> 100 µM	> 10 µM				
COc1ccc(C(=O)/C=C/c2cccc(C(F)(F)F)c2)cc1	> 100 µM	0.145 µM				
COc1ccccc1C(=O)/C=C/c1ccccc1	> 100 µM	> 10 µM				
C[C@H](NCc1ccc(OCc2cccc(F)c2)cc1)C(N)=O [SAFINAMIDE]					Not Active	
COc1ccc(OC(=O)/C=C/c2ccccc2C(F)(F)F)cc1	> 100 µM	2.59 µM				
O=C(/C=C/c1ccc(C(F)(F)F)cc1)Nc1cccc(F)c1	> 100 µM	0.283 µM				
COc1ccc(OC(=O)/C=C/c2ccccc2Cl)cc1	> 100 µM	0.937 µM				
COc1cccc(C(=O)/C=C/c2ccccc2C(F)(F)F)c1	> 100 µM	2.12 µM				
O=C(/C=C/c1ccc(C(F)(F)F)cc1)Nc1ccccc1F	> 100 µM	0.58 µM				
COc1ccc(C(=O)/C=C/c2cccc(OC)c2)cc1	> 100 µM	1.4 µM				
COc1ccccc1/C=C/C(=O)c1ccc(O)cc1	> 100 µM	0.624 µM				
O=C(/C=C/c1ccccc1C(F)(F)F)Oc1ccccc1	> 100 µM	5.88 µM				
COc1ccc(NC(=O)/C=C/c2ccccc2Cl)cc1	> 100 µM	> 10 µM				
COc1ccc(C(=O)/C=C/c2ccccc2)cc1 [4'-METHOXYCHALCONE]	> 100 µM	0.471 µM				
COc1ccc(C(=O)/C=C/c2ccccc2OC)cc1	> 100 µM	0.419 µM				
COc1ccc(NC(=O)/C=C/c2ccccc2C(F)(F)F)cc1	> 100 µM	> 10 µM				
